The source made the active and inactive calls.
What was measured:
[1] = target: Dual specificity protein phosphatase 3 (Homo sapiens, UniProt P51452); test: inhibition constants for human DUSP3 – biochemical, colorimetric, SAR follow-up (AID 2004)
[2] = target: T1, G-protein coupled receptor 35 (Homo sapiens, UniProt Q9HC97); test: SAR analysis of Antagonists of the GPR35 Receptor using an Image-Based Assay - Set 5. [Related pubchem assays (depositor defined):AID2058, AID2079]; assay type: functional
[3] = target: G-protein coupled receptor 55 (Homo sapiens, UniProt Q9Y2T6); test: SAR Analysis of Selective Antagonists of GPR55 using an Image-Based Assay - Set 3. [Related pubchem assays (depositor defined):AID2058, AID2079]; assay type: functional
[4] = target: T1, G-protein coupled receptor 35; test: SAR Analysis for the identification of Selective Antagonists of ERK1/2 Activity in GPR35-Overexpressing U2OS Cells - Set 2. [Related pubchem assays (depositor defined):AID2058, AID2079]; assay type: functional, cell-based
[5] = target: Peroxisome proliferator-activated receptor gamma/Nuclear receptor corepressor 2 (Homo sapiens, UniProt P37231+Q9Y618); assay type: functional
[6] = target: Photoreceptor-specific nuclear receptor (Homo sapiens, UniProt Q9Y5X4); assay type: functional;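 note: potency for compounds that break the NR2E3 corepressor complex and count as activators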
Cytochrome P450 2C9 = Cytochrome P450 2C9 (Homo sapiens, UniProt P11712); conditions: Potency
[7] = target: T2, Neuropeptides B/W receptor type 1 (Homo sapiens, UniProt P48145); test: Fluorescence-based dose response cell-based high throughput screening assay to identify antagonists of the G-protein coupled receptor 7 (GPR7). [Related pubchem assays: 1952 (Screening assay (GPR7 antagonists).), 1880 (Summary AID.)]; assay type: functional
T2 sequence (P48145 whole entry): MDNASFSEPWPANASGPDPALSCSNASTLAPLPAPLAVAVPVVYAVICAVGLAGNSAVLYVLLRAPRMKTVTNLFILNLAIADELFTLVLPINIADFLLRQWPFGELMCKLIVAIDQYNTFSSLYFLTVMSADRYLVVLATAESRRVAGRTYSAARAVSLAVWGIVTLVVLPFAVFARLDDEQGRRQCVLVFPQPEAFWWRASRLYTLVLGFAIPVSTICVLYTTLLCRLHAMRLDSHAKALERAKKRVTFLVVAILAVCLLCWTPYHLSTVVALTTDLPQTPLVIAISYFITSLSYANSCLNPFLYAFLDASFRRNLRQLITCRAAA

[8] = target: Melanin-concentrating hormone receptor 1 (Homo sapiens, UniProt Q99705); test: Fluorescence-based counterscreen for antagonists of the G-protein coupled receptor 7 (GPR7): cell-based high throughput dose response assay to identify antagonists of the melanin-concentrating hormone receptor 1 (MCHR1).; assay type: functional
Caspase-6 = target: T3, Caspase-6 (Homo sapiens, UniProt P55212); test: inhibition of CASP6 peptide cleavage – biochemical, VEID-R110 fluorescence, cherry-pick, dose response (AID 720632)
T3 sequence (P55212 whole entry): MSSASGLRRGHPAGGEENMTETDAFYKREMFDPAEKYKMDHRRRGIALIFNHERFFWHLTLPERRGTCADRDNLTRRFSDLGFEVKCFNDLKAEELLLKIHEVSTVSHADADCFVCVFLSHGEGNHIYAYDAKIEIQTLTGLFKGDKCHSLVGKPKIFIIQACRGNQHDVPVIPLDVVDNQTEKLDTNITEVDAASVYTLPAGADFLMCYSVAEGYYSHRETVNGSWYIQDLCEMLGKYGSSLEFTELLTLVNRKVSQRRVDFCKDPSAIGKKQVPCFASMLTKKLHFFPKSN

CHO = CHO cell viability loss, potency – luminescence, cytotoxicity control for TLR9-MyD88 binding inhibitor project, dose response (AID 588339); assay type: functional, cell-based, hamster; conditions: Cricetulus griseus;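 note: CHO cells stably coexpressing TLR9 and MyD88 fusions from primary screen; compound exposure lasted 48 hours before viability readout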
HeLa = test: viability loss in HeLa cells – cell-based, 24 h, cherry-picked samples, cytotoxicity control, dose response (AID 504726); assay type: functional; conditions: Homo sapiens
ORF 73 = target: T4, ORF 73 (Human herpesvirus 8, UniProt O40947); test: KSHV LANA DNA-binding disruption – biochemical, fluorescence polarization, cherry-picked samples, dose response (AID 504725); parameters: species or system Human gammaherpesvirus 8;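 note: fluorescence polarization of a labeled DNA duplex reporting LANA DNA binding; potency is for inhibitors that block LANA binding to the DNA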
T4 sequence (O40947 whole entry): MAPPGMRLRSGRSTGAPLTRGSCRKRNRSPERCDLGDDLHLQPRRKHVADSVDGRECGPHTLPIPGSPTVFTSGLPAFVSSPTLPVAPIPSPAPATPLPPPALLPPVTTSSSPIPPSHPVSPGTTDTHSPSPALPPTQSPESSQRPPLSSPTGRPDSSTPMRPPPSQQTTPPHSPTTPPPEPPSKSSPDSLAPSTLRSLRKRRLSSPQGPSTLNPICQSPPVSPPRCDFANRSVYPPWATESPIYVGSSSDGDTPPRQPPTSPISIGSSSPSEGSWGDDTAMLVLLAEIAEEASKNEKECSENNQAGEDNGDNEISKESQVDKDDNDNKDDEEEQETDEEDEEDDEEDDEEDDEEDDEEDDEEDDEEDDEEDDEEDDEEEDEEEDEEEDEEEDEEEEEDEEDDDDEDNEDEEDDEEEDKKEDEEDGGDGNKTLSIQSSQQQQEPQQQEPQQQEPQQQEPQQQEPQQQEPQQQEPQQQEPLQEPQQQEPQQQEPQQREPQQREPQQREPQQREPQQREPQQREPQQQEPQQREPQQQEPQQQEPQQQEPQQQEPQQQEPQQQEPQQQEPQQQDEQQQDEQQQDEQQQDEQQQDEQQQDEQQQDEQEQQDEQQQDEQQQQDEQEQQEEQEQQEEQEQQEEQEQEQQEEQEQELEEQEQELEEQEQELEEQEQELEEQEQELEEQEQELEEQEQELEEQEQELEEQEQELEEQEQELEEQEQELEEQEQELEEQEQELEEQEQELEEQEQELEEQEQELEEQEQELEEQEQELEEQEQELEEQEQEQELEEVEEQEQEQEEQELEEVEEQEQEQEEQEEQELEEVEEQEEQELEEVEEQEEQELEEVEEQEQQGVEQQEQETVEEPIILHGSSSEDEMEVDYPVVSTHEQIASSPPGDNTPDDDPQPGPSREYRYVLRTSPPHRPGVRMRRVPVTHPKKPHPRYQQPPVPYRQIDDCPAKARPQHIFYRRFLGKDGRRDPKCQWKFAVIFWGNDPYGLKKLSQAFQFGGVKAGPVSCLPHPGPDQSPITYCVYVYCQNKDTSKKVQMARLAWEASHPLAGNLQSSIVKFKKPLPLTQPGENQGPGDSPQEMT

[9] = system: Streptococcus sp. 'group A'; test: Streptococcus pyogenes SK(-)GAS viability under kanamycin – luminescence, BacTiterGlo, confirmation, counter-screen for streptokinase expression inhibitor project, dose response (AID 1900); assay type: functional, organism-based
Streptococcus [10] = test: GAS UMAA2166 growth inhibition – luminescence, BacTiterGlo, counter-screen for streptokinase expression inhibitor project, dose response (AID 1915); assay type: functional, organism-based;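 note: potency for reduction of bacterial viability or growth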
Streptokinase A = target: T5, Streptokinase A (Streptococcus pyogenes serotype M1, UniProt P10520); test: viability-normalized secreted streptokinase activity reduction – plasminogen activation absorbance, OD405, dose response (AID 1914); assay type: functional, Streptococcus pyogenes M1 GAS;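 note: secreted streptokinase activity via plasminogen activation per viability signal from cell pellet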
T5 sequence (P10520 whole entry): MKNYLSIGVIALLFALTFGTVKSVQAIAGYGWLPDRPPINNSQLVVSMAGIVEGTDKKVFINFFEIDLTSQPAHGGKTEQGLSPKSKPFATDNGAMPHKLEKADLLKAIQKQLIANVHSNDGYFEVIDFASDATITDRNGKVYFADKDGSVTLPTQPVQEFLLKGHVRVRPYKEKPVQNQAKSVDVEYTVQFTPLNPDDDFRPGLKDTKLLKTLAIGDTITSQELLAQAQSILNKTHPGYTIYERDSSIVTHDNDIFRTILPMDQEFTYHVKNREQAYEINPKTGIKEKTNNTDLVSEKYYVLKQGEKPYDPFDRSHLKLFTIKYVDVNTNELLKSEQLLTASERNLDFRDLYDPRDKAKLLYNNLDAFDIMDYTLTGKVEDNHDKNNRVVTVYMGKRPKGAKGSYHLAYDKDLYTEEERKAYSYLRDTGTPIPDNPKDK

Streptococcus [11] = test: Luminescence Microorganism-Based Dose Response Follow up to Identify Compounds Cytotoxic to Streptococcus. [Related pubchem assays: 1677 (Project Summary), 1915, 1914, 1902 (Retest at Dose), 1900 (Counter Screen), 1662 (Primary HTS)]; assay type: functional, organism-based
[12] = target: Lysosomal acid glucosylceramidase (Homo sapiens, UniProt P04062); test: Dose response cell-based high throughput screening assay to identify enhancers of beta-glucosidase activity. [Related pubchem assays: 784 ]; assay type: functional
[13] = Luminescence Cell-Based Dose Response HTS to Identify Inhibitors of 5'UTR Stem-Loop Driven Prion Protein mRNA Translation in H4 Neuroglioblastoma Cells. [Related pubchem assays: 1827 (Project Summary), 1813 (Primary HTS)]; assay type: functional
[14] = alpha-synuclein stem-loop translation blockers – luminescence, H4 neuroglioblastoma cells, dose confirmation, confirmation (AID 2454); assay type: functional, cell-based;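 note: H4 neuroglioblastoma cells carrying an alpha-synuclein 5'UTR luciferase reporter; potency for inhibition of the luciferase signal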
[15] = Luminescence-based dose response cell-based high throughput screening assay for cytotoxic compounds using the IEC-6 intestinal epithelial cell line. [Related pubchem assays: 1858 (Summary AID.), 1825 (Counterscreen.), 1907 (Confirmation screen.)]; assay type: functional
[16] = alpha-synuclein stem-loop luciferase translation blockers – H4 neuroglioma cells, luminescence, confirmation (AID 1988); assay type: functional, cell-based
[17] = non-specific 3'UTR reporter inhibition in Clone20-Shn3RL – cell-based, Renilla luciferase, cherry-picked, counter-screen for Shn3 inhibitor project, dose response (AID 624133); assay type: functional
cells = assay type: functional, cell-based
[18] = reduction of Shn3 3'UTR-driven luciferase in osteoblasts – cell-based, Clone20 osteoblasts, firefly luciferase, cherry-picked, dose response (AID 624132); assay type: functional;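 note: firefly luciferase luminescence from reporter carrying the Shn3 3'UTR in osteoblasts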
[19] = luciferase reporter signal reduction – luminescence, H4-C neuroglioblastoma cells, dose response (AID 2458); assay type: functional, cell-based;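 note: H4 neuroglioblastoma cells stably carrying a luciferase reporter gene fusion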
[20] = target: Scavenger receptor class B member 1 (Mus musculus, UniProt Q61009); test: mouse SR-BI DiI-HDL uptake blockers – ldlA[mSR-BI] cells, fluorescence, cherry pick, dose response (AID 493194); assay type: functional, cell-based;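 note: cellular uptake of fluorescent DiI-labeled HDL measured as cell fluorescence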
[21] = HEK-293T viability loss after treatment – luminescence, T-cell screen hits, cytotoxicity control for TCR NF-kB inhibitor project, dose response (AID 489026); assay type: functional, cell-based;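 note: cells exposed to compound about 14 hours before the viability readout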
Protein Rev = Protein Rev (Human immunodeficiency virus type 1 group M subtype B (isolate WMJ22)(HIV-1), UniProt P05866); test: inhibitors of Rev protein–RRE RNA complex – biochemical, protein-RNA interaction, dose response (AID 842); parameters: species or system Human immunodeficiency virus 1

T1 sequence (Q9HC97 whole entry): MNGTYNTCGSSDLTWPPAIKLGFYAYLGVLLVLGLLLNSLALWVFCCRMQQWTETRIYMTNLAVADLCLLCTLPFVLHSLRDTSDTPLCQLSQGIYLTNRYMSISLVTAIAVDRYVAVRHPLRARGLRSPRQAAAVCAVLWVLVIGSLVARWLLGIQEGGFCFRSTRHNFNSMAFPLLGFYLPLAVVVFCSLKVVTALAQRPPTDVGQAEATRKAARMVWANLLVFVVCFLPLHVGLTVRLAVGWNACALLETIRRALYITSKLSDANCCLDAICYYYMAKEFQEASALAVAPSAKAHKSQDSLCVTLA
Melanin-concentrating hormone receptor 1, sequence (Q99705 whole entry): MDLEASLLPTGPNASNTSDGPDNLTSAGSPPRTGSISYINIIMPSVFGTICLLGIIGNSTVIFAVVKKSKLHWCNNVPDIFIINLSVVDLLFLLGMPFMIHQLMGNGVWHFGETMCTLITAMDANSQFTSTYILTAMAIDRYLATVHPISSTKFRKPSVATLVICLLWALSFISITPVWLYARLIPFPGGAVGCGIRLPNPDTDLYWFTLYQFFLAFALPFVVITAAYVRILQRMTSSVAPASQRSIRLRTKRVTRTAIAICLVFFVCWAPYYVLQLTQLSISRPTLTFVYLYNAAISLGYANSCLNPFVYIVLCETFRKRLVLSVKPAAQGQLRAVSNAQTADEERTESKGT
Scavenger receptor class B member 1, sequence (Q61009 whole entry): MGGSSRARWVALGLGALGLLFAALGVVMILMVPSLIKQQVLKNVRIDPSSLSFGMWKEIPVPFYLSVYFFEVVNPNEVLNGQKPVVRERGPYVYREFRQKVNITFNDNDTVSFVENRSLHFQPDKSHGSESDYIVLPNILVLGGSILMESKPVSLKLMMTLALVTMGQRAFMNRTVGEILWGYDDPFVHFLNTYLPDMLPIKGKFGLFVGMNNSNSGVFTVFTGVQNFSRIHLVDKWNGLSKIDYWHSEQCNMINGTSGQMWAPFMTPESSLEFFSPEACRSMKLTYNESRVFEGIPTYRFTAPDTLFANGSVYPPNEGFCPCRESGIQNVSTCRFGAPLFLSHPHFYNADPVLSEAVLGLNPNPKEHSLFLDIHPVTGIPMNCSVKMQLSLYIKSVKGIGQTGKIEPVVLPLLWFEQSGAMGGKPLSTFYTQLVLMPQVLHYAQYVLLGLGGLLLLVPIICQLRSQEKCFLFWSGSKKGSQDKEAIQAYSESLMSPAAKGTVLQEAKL
Cytochrome P450 2C9, sequence (P11712 whole entry): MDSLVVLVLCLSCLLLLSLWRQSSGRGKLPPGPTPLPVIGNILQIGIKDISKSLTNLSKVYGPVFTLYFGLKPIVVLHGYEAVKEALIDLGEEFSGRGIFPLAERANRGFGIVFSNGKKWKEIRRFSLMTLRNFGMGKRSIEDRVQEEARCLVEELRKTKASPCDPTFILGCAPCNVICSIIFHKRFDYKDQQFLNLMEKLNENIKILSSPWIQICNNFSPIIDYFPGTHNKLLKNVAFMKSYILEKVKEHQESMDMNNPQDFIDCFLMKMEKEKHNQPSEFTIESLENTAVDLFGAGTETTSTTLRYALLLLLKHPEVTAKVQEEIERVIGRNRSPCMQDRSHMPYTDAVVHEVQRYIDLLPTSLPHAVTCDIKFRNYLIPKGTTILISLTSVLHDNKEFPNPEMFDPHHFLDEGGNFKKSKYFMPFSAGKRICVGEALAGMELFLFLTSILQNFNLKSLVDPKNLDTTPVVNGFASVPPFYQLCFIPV
G-protein coupled receptor 55, sequence (Q9Y2T6 whole entry): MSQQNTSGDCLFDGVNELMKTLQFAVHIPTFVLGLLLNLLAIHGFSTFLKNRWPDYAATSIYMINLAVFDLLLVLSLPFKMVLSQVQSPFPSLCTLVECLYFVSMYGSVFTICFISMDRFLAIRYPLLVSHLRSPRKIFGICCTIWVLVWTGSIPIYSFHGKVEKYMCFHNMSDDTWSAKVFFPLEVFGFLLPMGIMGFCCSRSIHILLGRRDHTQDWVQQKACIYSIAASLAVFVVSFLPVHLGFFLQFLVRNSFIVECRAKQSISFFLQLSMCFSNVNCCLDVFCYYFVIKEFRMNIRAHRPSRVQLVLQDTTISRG
Peroxisome proliferator-activated receptor gamma/Nuclear receptor corepressor 2, sequence (P37231 whole entry): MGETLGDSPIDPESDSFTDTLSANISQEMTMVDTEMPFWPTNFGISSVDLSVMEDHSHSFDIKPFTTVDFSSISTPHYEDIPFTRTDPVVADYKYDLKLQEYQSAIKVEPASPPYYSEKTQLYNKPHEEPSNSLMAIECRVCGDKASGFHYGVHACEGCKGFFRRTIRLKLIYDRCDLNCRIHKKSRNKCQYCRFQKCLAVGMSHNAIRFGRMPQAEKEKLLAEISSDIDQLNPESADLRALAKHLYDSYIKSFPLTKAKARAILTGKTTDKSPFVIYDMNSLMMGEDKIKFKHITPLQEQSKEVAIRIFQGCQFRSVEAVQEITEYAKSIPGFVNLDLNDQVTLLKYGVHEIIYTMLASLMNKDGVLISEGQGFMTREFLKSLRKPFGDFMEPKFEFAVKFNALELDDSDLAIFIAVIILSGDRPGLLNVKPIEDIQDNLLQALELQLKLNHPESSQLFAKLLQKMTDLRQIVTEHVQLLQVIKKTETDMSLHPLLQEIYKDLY
Peroxisome proliferator-activated receptor gamma/Nuclear receptor corepressor 2, sequence (Q9Y618 whole entry): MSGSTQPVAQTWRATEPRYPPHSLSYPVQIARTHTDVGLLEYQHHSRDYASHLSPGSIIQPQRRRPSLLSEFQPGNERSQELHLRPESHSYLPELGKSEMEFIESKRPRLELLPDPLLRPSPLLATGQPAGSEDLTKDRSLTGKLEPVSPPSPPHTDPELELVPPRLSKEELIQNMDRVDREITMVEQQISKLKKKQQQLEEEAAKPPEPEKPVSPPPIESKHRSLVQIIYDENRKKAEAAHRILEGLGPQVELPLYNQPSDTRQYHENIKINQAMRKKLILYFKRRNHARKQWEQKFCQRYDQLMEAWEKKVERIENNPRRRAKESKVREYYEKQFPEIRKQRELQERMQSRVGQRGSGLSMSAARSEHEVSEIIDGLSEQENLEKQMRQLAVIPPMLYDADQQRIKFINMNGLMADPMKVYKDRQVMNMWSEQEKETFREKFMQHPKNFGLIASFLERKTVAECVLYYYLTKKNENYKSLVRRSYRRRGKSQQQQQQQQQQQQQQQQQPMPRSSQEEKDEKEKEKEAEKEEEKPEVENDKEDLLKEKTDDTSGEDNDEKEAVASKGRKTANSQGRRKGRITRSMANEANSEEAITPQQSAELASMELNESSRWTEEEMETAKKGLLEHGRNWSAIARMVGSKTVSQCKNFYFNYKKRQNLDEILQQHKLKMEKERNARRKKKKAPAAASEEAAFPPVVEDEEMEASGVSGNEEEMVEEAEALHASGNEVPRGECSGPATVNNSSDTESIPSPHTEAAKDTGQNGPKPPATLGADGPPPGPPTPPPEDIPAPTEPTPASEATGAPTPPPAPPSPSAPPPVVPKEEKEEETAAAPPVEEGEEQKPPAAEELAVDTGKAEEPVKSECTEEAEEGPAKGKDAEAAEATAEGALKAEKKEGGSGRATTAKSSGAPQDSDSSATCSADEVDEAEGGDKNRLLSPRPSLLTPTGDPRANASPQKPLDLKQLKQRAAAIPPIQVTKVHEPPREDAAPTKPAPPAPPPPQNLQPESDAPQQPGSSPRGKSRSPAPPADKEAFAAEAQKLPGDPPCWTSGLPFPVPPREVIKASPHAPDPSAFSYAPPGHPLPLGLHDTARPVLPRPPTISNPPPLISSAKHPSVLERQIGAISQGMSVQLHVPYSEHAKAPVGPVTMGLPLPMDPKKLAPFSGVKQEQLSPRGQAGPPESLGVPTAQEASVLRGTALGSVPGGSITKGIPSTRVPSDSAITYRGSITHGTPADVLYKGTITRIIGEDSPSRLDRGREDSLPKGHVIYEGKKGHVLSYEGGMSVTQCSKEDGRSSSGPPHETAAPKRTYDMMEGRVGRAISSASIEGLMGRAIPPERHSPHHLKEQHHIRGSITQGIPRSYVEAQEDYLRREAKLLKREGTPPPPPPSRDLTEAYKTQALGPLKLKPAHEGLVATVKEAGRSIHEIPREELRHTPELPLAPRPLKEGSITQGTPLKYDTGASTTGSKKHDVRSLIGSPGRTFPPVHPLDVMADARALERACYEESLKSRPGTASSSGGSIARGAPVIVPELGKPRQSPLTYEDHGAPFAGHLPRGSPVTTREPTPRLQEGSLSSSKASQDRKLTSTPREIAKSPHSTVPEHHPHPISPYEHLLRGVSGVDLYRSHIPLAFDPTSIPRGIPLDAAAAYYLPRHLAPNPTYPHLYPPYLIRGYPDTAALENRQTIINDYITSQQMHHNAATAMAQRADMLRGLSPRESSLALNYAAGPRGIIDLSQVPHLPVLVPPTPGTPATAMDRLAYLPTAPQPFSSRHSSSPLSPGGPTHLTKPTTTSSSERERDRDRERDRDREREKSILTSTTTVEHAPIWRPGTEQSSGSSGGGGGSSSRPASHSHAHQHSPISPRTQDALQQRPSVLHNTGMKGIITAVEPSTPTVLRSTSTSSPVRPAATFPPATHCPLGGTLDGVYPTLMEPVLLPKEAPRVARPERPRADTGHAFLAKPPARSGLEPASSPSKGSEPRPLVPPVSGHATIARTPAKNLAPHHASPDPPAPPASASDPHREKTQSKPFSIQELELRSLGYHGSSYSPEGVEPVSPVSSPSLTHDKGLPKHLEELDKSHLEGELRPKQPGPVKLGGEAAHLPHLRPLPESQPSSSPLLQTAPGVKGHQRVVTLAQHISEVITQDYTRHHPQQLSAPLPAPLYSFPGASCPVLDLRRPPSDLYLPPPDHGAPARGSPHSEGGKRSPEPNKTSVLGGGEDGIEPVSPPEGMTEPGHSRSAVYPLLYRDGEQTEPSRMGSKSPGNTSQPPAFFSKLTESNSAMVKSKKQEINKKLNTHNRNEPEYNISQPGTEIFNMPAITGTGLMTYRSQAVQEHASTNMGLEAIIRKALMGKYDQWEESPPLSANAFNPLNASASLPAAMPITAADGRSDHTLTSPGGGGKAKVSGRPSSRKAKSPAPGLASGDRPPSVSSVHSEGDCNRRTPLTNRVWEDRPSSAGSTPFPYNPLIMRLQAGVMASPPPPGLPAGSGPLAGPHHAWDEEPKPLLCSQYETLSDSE

**Q.** For `CN1C(=O)C(=Cc2ccc(N3CCCC3)c([N+](=O)[O-])c2)C(=O)N(C)C1=O`, which Ki [1] is on record?
**A.** 24.5 µM (inactive)

**Q.** With `COC(=O)c1cnn(-c2ccc(F)cc2F)c1/C=N/NC(=S)Nc1ccc(Cl)cc1` as the molecule, how does the IC50 [2] read?
**A.** 0.171 µM (active)

**Q.** What about the IC50 [3] of the same molecule?
**A.** > 32 µM (inactive)

**Q.** And the IC50 [4]?
**A.** 1.69 µM (active)

**Q.** With `CCOc1ncccc1C(=O)Nc1ccc(C(=O)Nc2ccc(OC)cc2)cc1` as the molecule, how does the IC50 [5] read?
**A.** 3.53 µM (active)

**Q.** And the IC50 [6]?
**A.** > 39.8 µM (not active)

**Q.** For `CC(C)C[C@@H](CC(=O)N[C@H](CC(=O)N[C@@H]1CCNC[C@H]1C(=O)N[C@H](CC(=O)N[C@@H](CCC(=O)O)CC(=O)O)CC(C)C)C(C)C)NC(=O)[C@@H]1CNCC[C@H]1N`, which AC50 (Cytochrome P450 2C9) is on record?
**A.** 39.8 µM (inconclusive)

**Q.** With `Cc1ccccc1CN1C(=O)c2ccccc2Sc2ccc(C(=O)NCCCN3CCOCC3)cc21` as the molecule, how does the IC50 [7] read?
**A.** 8.23 µM (active)

**Q.** What about the IC50 [8] of the same molecule?
**A.** 12.1 µM (not active)

**Q.** With `Cc1ccc(C(=O)O)cc1N1C(=O)c2cccc3c([N+](=O)[O-])ccc(c23)C1=O` as the molecule, how does the AC50 (Caspase-6) read?
**A.** 10.3 µM (active)

**Q.** And the IC50 (CHO)?
**A.** 22.4 µM (inactive)

**Q.** What about the AC50 (HeLa) of the same molecule?
**A.** 67.1 µM (active)

**Q.** What about the AC50 (ORF 73) of the same molecule?
**A.** 35 µM (active)

**Q.** With `Cc1ccc(SCC(=O)N2c3ccccc3Sc3ccccc32)cc1` as the molecule, how does the EC50 [9] read?
**A.** > 150 µM (not active)

**Q.** And the EC50 (Streptococcus [10])?
**A.** > 150 µM (not active)

**Q.** And the EC50 (Streptokinase A)?
**A.** 10.9 µM (active)

**Q.** What about the EC50 (Streptococcus [11]) of the same molecule?
**A.** > 500 µM (not active)

**Q.** Which EC50 [12] does the source give for `COc1ccc(S(=O)(=O)NCC(=O)N(CC(=O)NCC2CCCO2)c2ccccc2C)cc1` (centres undefined) here?
**A.** > 50 µM (not active)

**Q.** Which EC50 [13] does the source give for `CCCCCOC(=O)c1[nH]c2c(c1C)C(=O)CC(c1ccco1)C2` (centres undefined) here?
**A.** 9.81 µM (active)

**Q.** And the EC50 [14]?
**A.** 0.133 µM (active)

**Q.** And the IC50 [15]?
**A.** 0.101 µM (active)

**Q.** And the EC50 [16]?
**A.** < 0.1 µM (active)

**Q.** And the AC50 [17]?
**A.** 3.96 µM (active)

**Q.** What about the EC50 (cells) of the same molecule?
**A.** 0.179 µM (active)

**Q.** And the AC50 [18]?
**A.** 1.49 µM (active)

**Q.** What about the EC50 [19] of the same molecule?
**A.** 0.198 µM (active)

**Q.** What about the AC50 [20] of the same molecule?
**A.** 33.3 µM (active)

**Q.** What about the IC50 [21] of the same molecule?
**A.** > 80 µM (inactive)

**Q.** With `CNCCCOc1ccc(C(C)(C)c2ccccc2)cc1` as the molecule, how does the IC50 (Protein Rev) read?
**A.** > 79.4 µM (not active)
